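Assay format: 96-well plates, 48-hour exposure. Here, GI50 denotes the concentration required for 50% inhibition of growth. TGI denotes the concentration required for complete inhibition of growth.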
Assays:
Assay in all cases: growth of human tumour cells (NCI), 48 h
[1] = test system: 786-0 renal
[2] = test system: A549 NSCLC
[3] = test system: ACHN renal
[4] = test system: CAKI-1 renal
[5] = test system: CCRF-CEM leukemia
[6] = test system: COLO 205 colon
[7] = test system: DLD-1 colon
[8] = test system: EKVX NSCLC
[9] = test system: HCC-2998 colon
[10] = test system: HCT-116 colon
[11] = test system: HCT-15 colon
[12] = test system: HL-60(TB) leukemia
[13] = test system: HOP-18 NSCLC
[14] = test system: HOP-62 NSCLC
[15] = test system: HT29 colon
[16] = test system: IGROV1 ovarian
[17] = test system: K-562 leukemia
[18] = test system: KM12 colon
[19] = test system: KM20L2 colon
[20] = test system: LOX IMVI melanoma
[21] = test system: LXFL 529 NSCLC
[22] = test system: M14 melanoma
[23] = test system: M19-MEL melanoma
[24] = test system: MALME-3M melanoma
[25] = test system: MOLT-4 leukemia
[26] = test system: NCI-H226 lung
[27] = test system: NCI-H23 lung
[28] = test system: NCI-H460 lung
[29] = test system: NCI-H522 lung
[30] = test system: OVCAR-3 ovarian
[31] = test system: OVCAR-4 ovarian
[32] = test system: OVCAR-5 ovarian
[33] = test system: OVCAR-8 ovarian
[34] = test system: RPMI-8226 leukemia
[35] = test system: RXF 393 renal
[36] = test system: SF-268 CNS
[37] = test system: SF-295 CNS
[38] = test system: SF-539 CNS
[39] = test system: SK-MEL-2 melanoma
[40] = test system: SK-MEL-28 melanoma
[41] = test system: SK-MEL-5 melanoma
[42] = test system: SN12C renal
[43] = test system: SNB-19 CNS
[44] = test system: SNB-75 CNS
[45] = test system: SNB-78 CNS
[46] = test system: SR leukemia
[47] = test system: SW-620 colon
[48] = test system: U251 CNS
[49] = test system: UACC-257 melanoma
[50] = test system: UACC-62 melanoma
[51] = test system: UO-31 renal
[52] = test system: XF 498 CNS
[53] = test system: A498 renal
[54] = test system: DMS 273 small cell lung
[55] = test system: HOP-92 NSCLC
[56] = test system: SK-OV-3 ovarian
[57] = test system: TK-10 renal
[58] = test system: DMS 114 small cell lung

COc1ccc(-c2onc(-c3ccc([N+](=O)[O-])cc3)c2C2=NCCCN2)cc1
TGI [1]: > 100 µM | TGI [2]: > 100 µM | TGI [3]: > 100 µM | TGI [4]: > 100 µM | TGI [5]: > 100 µM | TGI [6]: > 100 µM | TGI [7]: > 100 µM | TGI [8]: > 100 µM | TGI [9]: > 100 µM | TGI [10]: > 100 µM | TGI [11]: > 100 µM | TGI [12]: > 100 µM | TGI [13]: > 100 µM | TGI [14]: > 100 µM | TGI [15]: > 100 µM | TGI [16]: > 100 µM | TGI [17]: > 100 µM | TGI [18]: > 100 µM | TGI [19]: > 100 µM | TGI [20]: > 100 µM | TGI [21]: > 100 µM | TGI [22]: > 100 µM | TGI [23]: > 100 µM | TGI [24]: > 100 µM | TGI [25]: > 100 µM | TGI [26]: > 100 µM | TGI [27]: > 100 µM | TGI [28]: > 100 µM | TGI [29]: > 100 µM | TGI [30]: 85.5 µM | TGI [31]: > 100 µM | TGI [32]: > 100 µM | TGI [33]: > 100 µM | TGI [34]: > 100 µM | TGI [35]: > 100 µM | TGI [36]: > 100 µM | TGI [37]: > 100 µM | TGI [38]: > 100 µM | TGI [39]: > 100 µM | TGI [40]: > 100 µM | TGI [41]: > 100 µM | TGI [42]: > 100 µM | TGI [43]: > 100 µM | TGI [44]: > 100 µM | TGI [45]: > 100 µM | TGI [46]: > 100 µM | TGI [47]: > 100 µM | TGI [48]: > 100 µM | TGI [49]: > 100 µM | TGI [50]: > 100 µM | TGI [51]: > 100 µM | TGI [52]: > 100 µM

O=C([CH-]C(=O)C(F)(F)F)c1ccccc1.O=C([CH-]C(=O)C(F)(F)F)c1ccccc1.[O]=[U+2]=[O]
GI50 [1]: 21.7 µM | TGI [1]: 89.4 µM | GI50 [53]: 24.6 µM | TGI [53]: 74.4 µM | GI50 [2]: 27.4 µM | TGI [2]: > 100 µM | GI50 [3]: 13.6 µM | TGI [3]: 80.9 µM | GI50 [4]: 39 µM | TGI [4]: > 100 µM | GI50 [5]: 11.4 µM | TGI [5]: > 100 µM | GI50 [6]: 34.5 µM | TGI [6]: > 100 µM | GI50 [7]: 7.75 µM | TGI [7]: > 100 µM | GI50 [54]: 7.38 µM | TGI [54]: > 100 µM | GI50 [8]: 22.3 µM | TGI [8]: 72.9 µM | GI50 [9]: 14.4 µM | TGI [9]: 61.7 µM | GI50 [11]: 7.27 µM | TGI [11]: > 100 µM | GI50 [12]: 15.8 µM | TGI [12]: 78.4 µM | GI50 [14]: 15.1 µM | TGI [14]: 53.9 µM | GI50 [55]: 30.9 µM | TGI [55]: 95.6 µM | GI50 [15]: 28.3 µM | TGI [15]: 68.2 µM | GI50 [16]: 16.5 µM | TGI [16]: > 100 µM | GI50 [17]: 13.1 µM | TGI [17]: > 100 µM | GI50 [18]: 26 µM | TGI [18]: 92.6 µM | GI50 [19]: 19.9 µM | TGI [19]: > 100 µM | GI50 [20]: 13 µM | TGI [20]: > 100 µM | GI50 [21]: 7.33 µM | TGI [21]: > 100 µM | GI50 [22]: 19.1 µM | TGI [22]: 88.9 µM | GI50 [23]: 16.6 µM | TGI [23]: > 100 µM | GI50 [24]: 18.6 µM | TGI [24]: 47.7 µM | GI50 [25]: 19.4 µM | TGI [25]: > 100 µM | GI50 [27]: 4.71 µM | TGI [27]: 67.7 µM | GI50 [28]: 12.6 µM | TGI [28]: 90.6 µM | GI50 [29]: 4.11 µM | TGI [29]: > 100 µM | GI50 [30]: 18 µM | TGI [30]: 56.7 µM | GI50 [31]: 10.4 µM | TGI [31]: > 100 µM | GI50 [32]: 64.1 µM | TGI [32]: > 100 µM | GI50 [33]: 14.1 µM | TGI [33]: 93.6 µM | GI50 [34]: 8.51 µM | TGI [34]: > 100 µM | GI50 [35]: 16.9 µM | TGI [35]: 45.4 µM | GI50 [36]: 4.53 µM | TGI [36]: > 100 µM | GI50 [37]: 20.8 µM | TGI [37]: 86.5 µM | GI50 [38]: 4.13 µM | TGI [38]: > 100 µM | GI50 [39]: 28 µM | TGI [39]: > 100 µM | GI50 [40]: 9.2 µM | TGI [40]: 79.5 µM | GI50 [41]: 17.8 µM | TGI [41]: > 100 µM | GI50 [56]: 51.4 µM | TGI [56]: > 100 µM | GI50 [42]: 9.1 µM | TGI [42]: > 100 µM | GI50 [43]: 4.62 µM | TGI [43]: > 100 µM | GI50 [44]: 28.8 µM | TGI [44]: 85.8 µM | GI50 [47]: 27.9 µM | TGI [47]: > 100 µM | GI50 [57]: 20.4 µM | TGI [57]: 64.1 µM | GI50 [48]: 5.61 µM | TGI [48]: > 100 µM | GI50 [49]: 27.3 µM | TGI [49]: > 100 µM | GI50 [50]: 12.2 µM | TGI [50]: 87.9 µM | GI50 [51]: 5.4 µM | TGI [51]: > 100 µM | GI50 [52]: 23.8 µM | TGI [52]: 69.9 µM

CCOC(=O)C1=C(C)N2CCOC2(C)C(C(=O)OC)C1c1cccc(Cl)c1 (stereo not drawn)
TGI [1]: > 100 µM | TGI [53]: > 100 µM | TGI [2]: > 100 µM | TGI [3]: > 100 µM | TGI [4]: > 100 µM | TGI [5]: > 100 µM | TGI [6]: > 100 µM | TGI [7]: > 100 µM | TGI [58]: > 100 µM | TGI [54]: > 100 µM | TGI [8]: > 100 µM | TGI [9]: > 100 µM | TGI [10]: > 100 µM | TGI [11]: > 100 µM | TGI [12]: > 100 µM | TGI [13]: > 100 µM | TGI [14]: > 100 µM | TGI [55]: > 100 µM | TGI [15]: > 100 µM | TGI [16]: > 100 µM | TGI [17]: > 100 µM | TGI [18]: > 100 µM | TGI [19]: > 100 µM | TGI [20]: > 100 µM | TGI [21]: > 100 µM | TGI [22]: > 100 µM | TGI [23]: > 100 µM | TGI [24]: > 100 µM | TGI [27]: > 100 µM | TGI [28]: > 100 µM | TGI [29]: > 100 µM | TGI [30]: > 100 µM | TGI [32]: > 100 µM | TGI [33]: > 100 µM | TGI [34]: > 100 µM | TGI [36]: > 100 µM | TGI [37]: > 100 µM | TGI [38]: > 100 µM | TGI [39]: > 100 µM | TGI [40]: > 100 µM | TGI [41]: > 100 µM | TGI [56]: > 100 µM | TGI [42]: > 100 µM | TGI [43]: > 100 µM | TGI [44]: > 100 µM | TGI [45]: > 100 µM | TGI [46]: > 100 µM | TGI [47]: > 100 µM | TGI [57]: > 100 µM | TGI [48]: > 100 µM | TGI [49]: > 100 µM | TGI [50]: > 100 µM | TGI [51]: > 100 µM

CCCCCCCC/C=C/CCCCCCCC(=O)N(O)C1CC(n2cc(C)c(=O)[nH]c2=O)OC1CO (stereo not drawn)
TGI [1]: 16 µM | TGI [53]: 32.2 µM | TGI [2]: 33.9 µM | TGI [3]: 18 µM | TGI [4]: 21.6 µM | TGI [5]: 20.4 µM | TGI [6]: 16.7 µM | TGI [7]: 18.4 µM | TGI [58]: 10.9 µM | TGI [54]: 16.1 µM | TGI [9]: 22.4 µM | TGI [10]: 20.6 µM | TGI [11]: 16.2 µM | TGI [13]: 13.9 µM | TGI [14]: 18.1 µM | TGI [55]: 28.7 µM | TGI [15]: 22.4 µM | TGI [16]: 17.6 µM | TGI [17]: 21 µM | TGI [18]: 23.3 µM | TGI [19]: 16.4 µM | TGI [20]: 17.3 µM | TGI [21]: 22.4 µM | TGI [22]: 10.1 µM | TGI [23]: 17.7 µM | TGI [24]: 22 µM | TGI [25]: 19.6 µM | TGI [27]: 23.2 µM | TGI [28]: 13.6 µM | TGI [29]: 20.2 µM | TGI [30]: 20.1 µM | TGI [31]: 25 µM | TGI [32]: 22.3 µM | TGI [33]: 24.9 µM | TGI [34]: 50.1 µM | TGI [35]: 16.2 µM | TGI [36]: 26.3 µM | TGI [37]: 21.4 µM | TGI [38]: 24.2 µM | TGI [39]: 26.9 µM | TGI [40]: 19.4 µM | TGI [41]: 19.5 µM | TGI [56]: 21.9 µM | TGI [42]: 22.8 µM | TGI [43]: 25.5 µM | TGI [44]: 29.8 µM | TGI [45]: 45.8 µM | TGI [46]: 20.5 µM | TGI [47]: 23.8 µM | TGI [57]: 22.7 µM | TGI [48]: 17 µM | TGI [49]: 26.7 µM | TGI [50]: 11 µM | TGI [51]: 14.4 µM

— PubChem BioAssay (NCI)
